What all share (type): cell-based
Data set [1] concerns the target T1, GATA4–NKX2-5 transcriptional synergy (Mus musculus, UniProt P42582+Q08369).
T1 construct: expressed in transfected cells; host or cells: COS-1
The experiment in a line: GATA4–NKX2-5 transcriptional synergy luciferase reporter assay (3xNKE reporter, COS-1 cells). Conditions: COS-1. On the technique in general: In a reporter assay the amount or activity of a reporter protein is the signal.

Data set [2] addresses T2, NKX2-5 transcriptional activity (Mus musculus, UniProt P42582).
T2 construct: expressed in transfected cells; host or cells: COS-1
The experiment in a line: NKX2-5 luciferase reporter assay (3xNKE reporter, COS-1 cells). The settings on record: COS-1; for activity at 3 µM: read-out: NKX.3µM; for activity at 10 µM: read-out: NKX.10µM. On the procedure: (§1) To screen compounds for the GATA4–NKX2-5 interaction, we have developed a luciferase reporter assay based on their property to activate gene transcription synergistically through the NKX2-5 binding site on DNA.[28] In this assay, we transfected mammalian COS-1 cells with protein expression vectors for GATA4 and NKX2-5 proteins together with artificial luciferase reporter vector containing three high affinity binding sites for NKX2-5 (NKE). […] All 257 compounds were tested in two concentrations, 3 and 10 μM. Compounds either inhibited, enhanced, or had no effect on the GATA4–NKX2-5 transcriptional synergy. To investigate the selectivity of the active compounds, we tested their effects on NKX2-5 transcriptional activity by using the same luciferase reporter vector as in transcriptional synergy assay with three NKE sites (Figure 3B). Furthermore, we used GATA luciferase reporter assay to examine if compounds have an effect on GATA4 transcriptional activity. In this assay, we cotransfected the cells with a GATA4 protein expression vector and a reporter vector with tandem GATA4 binding sites (Figure 3C). Previously we have reported that compound 1 inhibited the GATA4–NKX2-5 transcriptional synergy at micromolar concentrations (IC50 = 3 μM).[29]
(§2) The plasmids expressing mouse GATA4 protein, pMT2-GATA4, and empty pMT2 were gifts from D. B. Wilson (Department of Pediatrics, St. Louis Children’s Hospital, St. Louis, MO).[44] The plasmids expressing mouse NKX2-5 protein, pMT2-NKX2-5, have been described earlier.[28] The luciferase reporter plasmid used in GATA4–NKX2-5 transcriptional synergy assay and NKX transcriptional assay, pGL3-3xHA, contains three high affinity binding sites for NKX2-5.[28] The luciferase reporter plasmid used in GATA transcriptional assay, NP-112, contains tandem GATA-sites and minimal promoter of rat brain natriuretic peptide (BNP) gene.[45] The pGL3-BNP luciferase reporter containing −534/+4 bp rat BNP proximal promoter described previously was used in hypertrophy assay.[46]
(§3) The primary screening assay of compounds’ effect on GATA4–NKX2-5 transcriptional synergy and COS-1 cell culturing has been described earlier.[33] […] (Kinnunen et al., unpublished observation). Briefly, COS-1 cells were seeded at 14 000 cells/well in Isoplate-96 microplates (PerkinElmer, Turku, Finland) and grown overnight. The cells were transfected with the luciferase reporter plasmid pGL3-3xHA 100 ng/well and equal amounts of expression plasmids pMT2-GATA4 and pMT2-NKX2-5 total 50 ng/well. To verify the synergistic effect, the cells were transfected with pMT2-GATA4 or pMT2-NKX2-5 25 ng/well, and the total DNA concentration was adjusted to 50 ng/well with empty pMT2 plasmid. In NKX2-5 and GATA4 luciferase reporter assays, the cells were transfected with reporter plasmid pGL3-3xHA or NP-112 (100 ng/well) and expression plasmid pMT2-NKX2-5 or pMT2-GATA4 (25 ng/well). The ratio of DNA/transfection reagent (Fugene 6, Promega) was 1:3 in all assays. The transfections were performed in serum and antibiotics free media for 6 h. The cells were treated with compounds or vehicle (0.1% DMSO) for 24 h, and the luminescence was measured using neolite Reporter Gene Assay System (PerkinElmer, Turku, Finland) and Victor2 plate reader (PerkinElmer, Turku, Finland).
(§4) Raw luciferase data were analyzed in Excel, and clear outliers were removed from triplicates by using the Grubb’s test. Data analysis was performed using R.[49] The luciferase data were first normalized on the basis of the combined mean value of controls. For data visualization and creation of figures, the following R packages were used: ggplot2, cowplot, RColorBrewer, and pheatmap. The heatmaps of the toxicity data were produced with GraphPad Prism 7.00 (GraphPad Software, La Jolla, CA). Statistical significance of luciferase reporter assay data was evaluated by randomized block analysis of variance followed by Dunnett’s post hoc test. […]

Data set [3] addresses T3, GATA4 transcriptional activity (Mus musculus, UniProt Q08369).
T3 construct: expressed in transfected cells; host or cells: COS-1
The experiment in a line: GATA4 luciferase reporter assay (tandem GATA-site reporter, COS-1 cells). The settings on record: COS-1. On the procedure: as §1, §2, §3, §4

Data set [4] deals with COS-1 cells. The experiment in a line: LDH assay (necrosis). From the text:
(§5) To investigate the toxicity as a potential cause of decreased or increased activity in luciferase reporter gene assays, we tested a set of 40 active compounds in the COS-1 cell line used for the luciferase assays. Concentration-dependent toxic effects were investigated using the lactate dehydrogenase (LDH) assay to detect necrosis and the 3-(4,5-dimethylthiazol-2-yl)-2,5-diphenyltetrazolium bromide (MTT) assay as a measure of cell viability. […] For the data analysis, compounds were classified as toxic (Figures 5 and 7) if they induced a >10% decrease in cell viability in the MTT assay at the concentration of 10 μM. The most toxic compounds (35a, 35d, 54, 58, and 63–65) in the MTT assay all contained a phenyl substituent in the southern part ring, while the ortho-nitrophenyl-derivative 39g and the phenyl-substituted thiophene 47t were nontoxic. Higher flexibility in the central parts of the ethers (35a, 35d) and N-acylated amines (58, 64) might contribute to their toxicity, because less rigid compounds are more likely to have affinity to various biological targets. Such interactions can cause toxicity. To confirm and validate the results from MTT assays, we tested three nontoxic (2, 47s, and 72) and three toxic (1, 35a, and 58) compounds in a cell viability assay measuring intracellular ATP content.
(§6) Figure 5 Effects of selected compounds on COS-1 cell viability. (A) Compound-induced necrosis was quantified with the LDH assay after a 24-h compound exposure. The data are presented as cytotoxicity percentage (% of maximal LDH release). (B) Cell viability was analyzed with the MTT assay after a 24-h compound exposure. (A,B) The data are means from 2–3 independent experiments with 3 replicate wells in each and are presented as % of control (vehicle-treated cells). The compounds have been grouped on the basis of the structure of the central part: a, amide; b, ether; c, N-acylated amine; d, amine; and e, imine. (C) The effects of selected compounds on cell viability as determined by ATP content after a 24-h compound exposure. The data are mean + SEM from three independent experiments and are presented as % of vehicle-treated cells.
(§7) For toxicity screening, COS-1 cells were cultured in DMEM (Sigma-Aldrich, Steinheim, Germany) supplemented with 10% fetal bovine serum, 100 U/mL penicillin, and 100 μg/mL streptomycin (all from Gibco, Thermo Scientific) at 37 °C with 5% CO2. The cells were plated on 96-well plates at 10 000 cells/well and exposed to test compounds at a concentration range of 1–30 μM on the following day. After a 24-h compound treatment, lactate dehydrogenase (LDH) and 3-(4,5-dimethylthiazol-2-yl)-2,5-diphenyltetrazolium bromide (MTT) assays were carried out as described previously.[48] Briefly, LDH activity was determined from 50 μL samples of cell culture medium, to which 50 μL of substrate solution [1.3 mM β-nicotinamide-adenine dinucleotide, 660 μM iodonitrotetrazolium, 54 mM L(+)-lactic acid, and 280 μM phenazine methosulfate in 0.2 M Tris-HCl, pH 8.2, all from Sigma-Aldrich] was added, and the plate was incubated for 30 min at room temperature. The reaction was stopped with acetic acid (final concentration 333 mM), and absorbance was measured at 490 nm. The absorbance values of the samples were normalized to maximal LDH release and spontaneous LDH release determined on the same plate. Mitochondrial metabolic activity was quantified by incubating the cells with 0.5 mg/mL MTT (from Sigma-Aldrich) for 2 h at 37 °C with 5% CO2, whereafter culture medium was removed and formazan crystals were dissolved in DMSO. The absorbance was measured at 550 nm, and absorbance at 650 nm was subtracted as background.

The test system of data set [5] is COS-1 cells. The experiment in a line: MTT assay (cell viability). The settings on record: for MTT.1µM / MTT.3µM / MTT.10µM / MTT.30µM: cell viability.
Excerpt: as §5, §6, §7

Where [6] appears, read: luciferase reporter activity relative to control.
[7] abbreviates: 10 µM, luciferase reporter activity relative to control.
The mark [8] stands for this setting: luciferase reporter activity, % of control.

Read-outs that look alike come from different tables or passages of the source.

T2 sequence (P42582 whole entry): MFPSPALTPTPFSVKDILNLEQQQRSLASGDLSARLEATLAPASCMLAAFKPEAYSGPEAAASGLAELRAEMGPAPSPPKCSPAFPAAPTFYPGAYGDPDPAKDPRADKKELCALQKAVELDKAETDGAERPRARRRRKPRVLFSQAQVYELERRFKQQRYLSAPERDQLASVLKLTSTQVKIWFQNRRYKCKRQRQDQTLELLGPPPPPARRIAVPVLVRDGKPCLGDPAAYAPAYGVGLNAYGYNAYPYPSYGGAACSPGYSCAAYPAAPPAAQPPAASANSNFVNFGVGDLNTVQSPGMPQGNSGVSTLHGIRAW
T1 sequence (Q08369 whole entry): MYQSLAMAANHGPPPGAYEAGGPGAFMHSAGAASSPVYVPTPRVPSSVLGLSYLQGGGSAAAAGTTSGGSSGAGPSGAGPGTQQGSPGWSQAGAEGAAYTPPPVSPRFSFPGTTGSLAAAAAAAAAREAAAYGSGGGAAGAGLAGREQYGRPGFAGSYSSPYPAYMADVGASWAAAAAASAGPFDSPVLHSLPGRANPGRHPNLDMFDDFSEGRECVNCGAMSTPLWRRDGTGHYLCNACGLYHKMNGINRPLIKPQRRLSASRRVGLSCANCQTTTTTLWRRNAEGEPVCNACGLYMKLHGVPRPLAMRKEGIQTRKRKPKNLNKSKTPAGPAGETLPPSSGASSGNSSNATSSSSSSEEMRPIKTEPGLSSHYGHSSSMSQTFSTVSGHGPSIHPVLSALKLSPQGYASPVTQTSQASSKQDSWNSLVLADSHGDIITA
T1 sequence (P42582 whole entry): as the sequence (P42582 whole entry) above
T3 sequence (Q08369 whole entry): as the sequence (Q08369 whole entry) above

As to `CCN(CC)c1ccc(NC(=O)c2csc(C)c2-c2ccccc2)cc1` [Compound 47t], the activity at 3 µM in data set [1] (setting [6]) came to 61.5%. Moreover, the activity at 3 µM in data set [2] (setting [6]) was 55.2%. The activity at 3 µM in data set [3] (setting [6]) was 74.4%. In data set [4], this compound registered an LDH.1µM of 0.5, an LDH.3µM of 1.08, an LDH.10µM of 0.5 and an LDH.30µM of 2.38. In data set [5], this compound registered an MTT.1µM of 106.87, an MTT.3µM of 104.76, an MTT.10µM of 104.28 and an MTT.30µM of 99.24. In addition, the “toxicity class in the MTT assay” value in data set [5] (24-h exposure, classified at 10 μM) is given as “nontoxic (nontoxic compounds (cell viability >90%))”.

Take `CC(=O)N(Cc1ccc(N(C)C)cc1)c1c(-c2ccccc2)noc1C` [Compound 64]: the activity at 3 µM in data set [1] (setting [6]) is 40.2%. In addition, in data set [2] (setting [6]), the activity at 3 µM was 62.1% and the activity at 10 µM was found to be 44.1%. For the same compound, the activity at 3 µM in data set [3] (setting [6]) came out at 59.6%. Moreover, in data set [4], the LDH.1µM is given as 0.55, the LDH.3µM is -0.52, the LDH.10µM is given as -0.2 and the LDH.30µM is given as -0.49. In data set [5], this compound displayed an MTT.1µM of 98.18, an MTT.3µM of 84.51, an MTT.10µM of 77.4 and an MTT.30µM of 65.98.

Regarding `CCN(CC)c1ccc(/C=N/c2c(-c3ccccc3)noc2C)c(O)c1` [SI44], the activity at 3 µM in data set [1] (setting [6]) worked out at 84.8%. The activity at 10 µM in data set [1] (setting [7]) stood at 53.2%. In data set [2] (setting [6]), the activity at 3 µM turned out to be 99.9% and the activity at 10 µM was 53.9%. Further, the activity at 3 µM in data set [3] (setting [6]) worked out at 107%. Also, in data set [3] (setting [7]), the activity at 10 µM worked out at 74.1%. In data set [4], this compound registered an LDH.1µM of 2.83, an LDH.3µM of 1.4, an LDH.10µM of -0.96 and an LDH.30µM of 0.36. In data set [5], this compound showed an MTT.1µM of 105.22, an MTT.3µM of 100.5, an MTT.10µM of 90.69 and an MTT.30µM of 89.22.

For `CCN(CC)c1ccc(NC(=O)c2c(-c3ccc(F)cc3)noc2C)cc1` [Compound 39d, N-[4-(Diethylamino)phenyl]-3-(4-fluorophenyl)-5-methylisoxazole-4-carboxamide], the activity at 3 µM in data set [1] (setting [8]) was determined as 61.4%. Moreover, in data set [2] (setting [8]), the activity at 3 µM was found to be 73.3%. Besides, in data set [3] (setting [8]), the activity at 3 µM turned out to be 94.4%. In data set [4] (COS-1 cells), this compound returned an LDH.1µM of 3.12, an LDH.3µM of -0.19, an LDH.10µM of -0.49 and an LDH.30µM of 2.51. In data set [5] (COS-1 cells), this compound yielded an MTT.1µM of 99.41%, an MTT.3µM of 97.69%, an MTT.10µM of 91.72% and an MTT.30µM of 87.25%.

Take `CCN(c1ccc(NC(=O)c2c(C)noc2-c2ccccc2)cc1)C(C)C` [Compound 63]: in data set [1] (setting [6]), the activity at 3 µM stood at 41.6%. Besides, the activity at 3 µM in data set [2] (setting [6]) worked out at 69.7%. Further, the activity at 3 µM in data set [3] (setting [6]) was found to be 68%. In data set [4], this compound gave an LDH.1µM of 0.04, an LDH.3µM of -1.53, an LDH.10µM of -2.08 and an LDH.30µM of 0.01. In data set [5], this compound displayed an MTT.1µM of 99.16, an MTT.3µM of 82.83, an MTT.10µM of 75.83 and an MTT.30µM of 61.58.

As to `C=CCN(Cc1ccc(N(CC)CC)cc1)c1c(-c2ccccc2)noc1C` [Compound 30b], the activity at 3 µM in data set [1] (setting [6]) was 84.5%. The activity at 3 µM in data set [2] (setting [6]) worked out at 97.2%. In addition, the activity at 3 µM in data set [3] (setting [6]) is 82.8%. Further, in data set [4], the LDH.1µM is on record as -1.6, the LDH.3µM is listed as -0.27, the LDH.10µM came out at 1.75 and the LDH.30µM came to 3.61. In data set [5], this compound showed an MTT.1µM of 104.18, an MTT.3µM of 97.12, an MTT.10µM of 96.41 and an MTT.30µM of 84.34.

These data come from article PMC7076710, “Synthesis, Identification, and Structure–Activity Relationship Analysis of GATA4 and NKX2-5 Protein–Protein Interaction Modulators” (Journal of Medicinal Chemistry, 2019).
